Patent US20050239756A1, “Methods of treating various vitamin D metabolism conditions with 1alpha-hydroxyvitamin D2” (Bone Care International, Inc., priority 2004, published 2005)
“And” between values parts separate entries of the source, which are not always exact repeats. Identical values can stand only once.

Columns and labels:
[1] = tested on: subjects with low serum 1,25-dihydroxyvitamin D; experiment: 24-week oral doxercalciferol therapy in subjects with low serum 1,25-dihydroxyvitamin D (Example 4); format: in vivo, human
Description: (§1) 1α-(OH)D2 (doxercalciferol) is used as a treatment for subjects with low serum 1,25-dihydroxyvitamin D in a study involving 50 adults, ages 18-85 years. The subjects have serum 1,25-dihydroxyvitamin D levels below 20 pg/dL and complete an eight-week baseline period and then 24 weeks of therapy with orally administered doxercalciferol. The initial dose of 1α-(OH)D2 is 2 capsules daily (totaling 1.0 μg), with increases in steps of one capsule per day permitted after four weeks. The maximum dosage is limited to 10 capsules per day (5.0 μg/day of doxercalciferol). Subjects are monitored at regular intervals for plasma iPTH, serum calcium and phosphorus, 24-hour and fasting urinary calcium, bone-specific serum markers, plasma total 1α,25-(OH)2D, and routine blood chemistries and hematologies.

[2] = tested on: subjects with low serum calcium; experiment: 24-week oral doxercalciferol therapy in subjects with low serum calcium (Example 3); format: in vivo, human
Description: as §1, with “calcium” for “1,25-dihydroxyvitamin D”, “8.6 mg/dL” for “20 pg/dL”

[3] = tested on: subjects with chronic kidney disease with elevated blood PTH; experiment: 24-week double-blinded placebo-controlled study of oral doxercalciferol in secondary hyperparathyroidism with mild to moderate chronic kidney disease (Example 2); format: in vivo, human; details: for Mean (±SE) plasma iPTH: baseline 219.1±22.3 pg/mL
Description: 1α-(OH)D2 (doxercalciferol) was used as a treatment for hyperparathyroidism associated with chronic kidney disease was confirmed in a study involving 55 adults, ages 18-85 years, with mild to moderate chronic kidney disease. The subjects had plasma intact parathyroid hormone (iPTH) levels above 85 pg/mL and completed an eight-week baseline period and then 24 weeks of therapy with either orally administered doxercalciferol or placebo. The initial dose of test drug was 2 capsules daily (totaling 1.0 μg for subjects randomized to doxercalciferol treatment), with increases in steps of one capsule per day permitted after four weeks. The maximum dosage was limited to 10 capsules per day (5.0 μg/day of doxercalciferol). Subjects were monitored at regular intervals for plasma iPTH, serum calcium and phosphorus, 24-hour and fasting urinary calcium, bone-specific serum markers, plasma total 1α,25-(OH)2D, and routine blood chemistries and hematologies. Glomerular filtration rate (GFR) was measured prior to beginning the treatment and at study termination. No physical or biochemical differences were detectable between the two treatment groups prior to starting treatment. […] On enrollment, each subject was assigned, at random, in double-blinded fashion, to one of two treatment groups. Both treatment groups completed an 8-week Baseline Period (Weeks −8 to 0) and then underwent therapy with either orally administered doxercalciferol or placebo for a 24-week Treatment Period (Weeks 1 to 24). Irrespective of treatment group assignment, each subject discontinued any 1α,25-dihydroxivitamin D3 (1α,25(OH)2D3) therapy for the duration of the study. Throughout the Baseline Period and the subsequent Treatment Period, subjects were monitored at regular intervals for plasma iPTH, serum calcium, serum phosphorus, and 24-hour and fasting urinary calcium, phosphorus and creatinine. Routine blood chemistries and hematologies, bone-specific serum markers, and plasma total 1α,25(OH)2D were also monitored at selected intervals. Glomerular filtration rate (GFR) was measured prior to beginning treatment and at termination. Subjects qualified for inclusion in the Baseline Period if they were aged 18 to 85 years, had mild to moderate CR1 with serum creatinine between 1.8 to 5.0 mgldL (for men) or 1.6 to 4.0 mg/dL (for women), and had elevated plasma iPTH values (>85 pg/mL). Subjects receiving ongoing treatment with estrogen were required to maintain the same estrogen dosing regimen throughout the study. Subjects who began dialysis treatment or underwent renal transplantation were required to prematurely terminate participation. […] Patients were also excluded who had hypercalcemia, hyperthyroidism, sarcoidosis, malignancy requiring chemotherapy, hormonal therapy and/or radiation treatment, chronic gastrointestinal disease (i.e., malabsorption, surgery affecting absorption, and chronic ulcerative colitis), hepatic impairment, or any other condition which may have put the patient at undue risk. […] The two studies were conducted under double-blind conditions in each geographical region. Assignments of subjects to the two treatment groups were made randomly, by geographical region, in order of enrollment. The randomization was accomplished in subgroups of size 10, 5 subjects assigned to each of the two treatment groups. The randomization was performed by an independent statistician using the Statistical Analysis System (SAS). 1α-hydroxyvitamin D2 (available as doxercalciferol from Bone Care International) was formulated for oral administration as soft elastic gelatin capsules in units of 0.5 mcg/capsule. […] The initial dose of test drug (doxercalciferol or placebo) was 2 capsules (totaling a 1.0 μg dose for subjects receiving doxercalciferol) every day before breakfast. This dosage was increased as necessary at monthly intervals, to suppress plasma iPTH levels by at least 30% from baseline. […]

[4] = tested on: postmenopausal osteoporotic outpatients; experiment: 104-week placebo-controlled study of oral 1α-(OH)D2 in postmenopausal osteoporotic outpatients (Example 1); format: in vivo, human
Description: 1α-(OH)D2 was used to treat osteoporosis was confirmed in a study involving 60 postmenopausal osteoporotic outpatients. […] Exclusion criteria encompassed significant medical disorders and recent use of medications known to affect bone or calcium metabolism. On admission to the study, each subject was assigned at random to one of two treatment groups; one group received up to a 104-week course of therapy with 1α-(OH)D2; the other received only placebo therapy. All subjects received instruction on selecting a daily diet containing 700-900 mg of calcium and were advised to adhere to this diet over the course of the study. Compliance to the diet was verified at regular intervals by 24-hour food records and by interviews with each subject. During the treatment period, subjects from one group orally self-administered 1α-(OH)D2 at an initial dosage of 1.0 μg/day for one week, and increased the dosage to 2.0, 3.0, 4.0 μg/day in each of the following weeks, to a maximum dosage of 5.0 μg/day. The dosage for any given subject was increased in this way until the rate of urinary calcium excretion was elevated to approximately 275-300 mg/24 hours, at which point the subject held the dosage constant at the highest level attained. Subjects from the second group self-administered a matching placebo medication every day, titrating the apparent dosage upwards in the same manner as subjects being treated with 1α-(OH)D2. Spinal and femoral neck BMD were measured in all subjects by DEXA at the beginning of the study, and at six-month intervals thereafter. Intestinal calcium absorption was estimated in all subjects by a single isotope technique at the beginning of the study, and at 12-month intervals. Serum levels of vitamin D metabolites were determined by radioreceptor binding assays at baseline and at six-month intervals. Serum osteocalcin, serum PTH and urine hydroxyproline also were determined at baseline and at six-month intervals. Other blood and urine chemistries were monitored at regular intervals during the treatment period. These chemistries included serum calcium, serum ionized calcium, urine calcium, blood urea nitrogen, serum creatinine and creatinine clearance. Kidney-ureter-bladder (KUB) x-rays were obtained at baseline and at 12-month intervals thereafter.

PTH levels = details: Malluche et al., Nephrol. Dial. Transplant., 2004; cited from earlier work
[5] = after the 24 week treatment period
[6] = Treatment Period, active treatment

C=C1/C(=C\C=C2/CCC[C@]3(C)[C@@H]([C@H](C)/C=C/[C@H](C)C(C)C)CC[C@@H]23)C[C@@H](O)C[C@@H]1O [1α-(OH)D2, 1α-hydroxyvitamin D2]
Average serum phosphorous levels [1, 5]: 2.4 to 5 mg/dL | Serum bone-specific markers alkaline phosphatase, N- and C-telopeptides, and osteocalcin [1, 5]: average normal levels | Serum 1,25-dihydroxyvitamin D levels between doses ([1]; between doses of 1α-(OH)D2): within the patients normal historical physiological range | Average serum phosphorous levels [2, 5]: 2.4 to 5 mg/dL | Serum bone-specific markers alkaline phosphatase, N- and C-telopeptides, and osteocalcin [2, 5]: average normal levels | Serum 1,25-dihydroxyvitamin D levels between doses ([2]; between doses of 1α-(OH)D2): within the patients normal historical physiological range | Renal function and rates of adverse events vs placebo ([3]; 24 weeks): No differences between treatment groups | Subjects achieving plasma iPTH suppression of ≧30% from baseline (percentage) ([3]; 27 subjects in the active group, mean of Weeks 20 and 24, placebo 7.1%): 74% | Episodes of hypercalciuria (24-hour urine calcium >200 mg or fasting urine Ca/Cr ratio above 0.25) ([3]; Treatment Period): No episodes | Episodes of hyperphosphatemia (serum phosphorus >5.0 mg/dL) [3, 6]: 15 episodes | Subjects with hyperphosphatemia (serum phosphorus >5.0 mg/dL) [3, 6]: 10 subjects | Mean serum osteocalcin, upward trend from baseline ([3]; Week 4): ~10% | Mean (±SE) plasma iPTH ([3]; Week 4): 165 ± 15 pg/mL | Mean reduction of plasma iPTH from baseline ([3]; Week 8): 26.3% | Mean serum osteocalcin, decline from baseline ([3]; Week 24): about 20% | Mean (±SE) serum phosphorus ([3]; Week 24, baseline 4.02±0.15 mg/dL): 4.27 ± 0.13 mg/dL | Mean (±SE) serum calcium ([3]; Week 24, baseline 8.74±0.12 mg/dL): 9.14 ± 0.11 mg/dL | Mean (±SE) plasma iPTH ([3]; Week 24, p<0.001 vs. baseline): 118 ± 17 pg/mL | Mean reduction (suppression) of plasma iPTH from baseline ([3]; Week 24, p<0.001): 45.6% | Mean alkaline phosphatase ([3]; Weeks 16 and 24, p<0.05): reduced significantly from baseline | Mean serum total 1,25-dihydroxyvitamin D levels ([3]; all treatment weeks, did not differ significantly between groups): increased significantly from baseline | Mean reduction in serum bone-specific alkaline phosphatase (BSAP) from baseline ([3]; by Week 16): 19.7±3.7% | Mean reduction in serum bone-specific alkaline phosphatase (BSAP) from baseline ([3]; by Week 24): 27.9±4.6% | Rise in mean serum 1,25-dihydroxyvitamin D from baseline levels ([3]; during treatment, no change in placebo group): ~50% | iPTH increase in an individual subject ([3]; end of treatment, one subject): 3.9% | iPTH reduction in individual subjects not reaching ≧30% suppression ([3]; end of treatment, single subjects, listed as doxercalciferol): 24.0% and 24.2% and 19.6% | Duration of hypercalcemia episode ([3]; episode with onset in Week 4): 5 weeks | Maximum serum calcium recorded during hypercalcemia episode ([3]; episode with onset in Week 4, one subject): 10.9 mg/dL | Duration of hypercalcemia episode ([3]; episode with onset in Week 16): 8 weeks | Maximum serum calcium recorded during hypercalcemia episode ([3]; episode with onset in Week 16, one subject): 11.0 mg/dL | Episodes of hypercalcemia (corrected serum calcium >10.7 mg/dL) ([3]; in one subject, onsets Week 4 and Week 16): Two | Subjects achieving plasma iPTH suppression of ≧30% from baseline (number) ([3]; of 27 subjects in the active group, mean of Weeks 20 and 24): 20 subjects | Serum calcium in the excepted subject during treatment ([3]; one subject with pre-treatment serum calcium as high as 10.7 mg/dL): 11.0 mg/dL | iPTH increase in a subject at discontinuation ([3]; one subject, discontinued in Week 5): 22.8% | Plasma iPTH suppression from baseline in a subject at discontinuation ([3]; one subject, discontinued in Week 8): 27.9% | Plasma iPTH suppression in a subject at discontinuation ([3]; one subject, discontinued in Week 17): 44.4% | Serum C- and N-telopeptides and bone-specific alkaline phosphate ([3]; relative to baseline and placebo treatment, p<0.01): decreased | Increase in intestinal absorption of orally administered Ca relative to placebo control ([4]; after 52 weeks, P<0.001): 40% | Increase in intestinal absorption of orally administered Ca relative to placebo control ([4]; after 104 weeks, P<0.5): 29% | Decrease in serum levels of PTH relative to placebo therapy ([4]; at 1-4 weeks (so in the source)): 25% | Increase in mean serum total 1α,25-(OH)2D3 relative to placebo therapy ([4]; at 24 months, P<0.01): 49% | Decrease in serum levels of PTH relative to placebo therapy ([4]; at 52 weeks): 17% | Increase in mean serum total 1α,25-(OH)2D3 relative to placebo therapy ([4]; at six months, P<0.05): 21% | Mean urine calcium during initial titration period ([4]; dosage titrated 1.0 to 5.0 μg/day): increased during the initial titration period in a dose-response fashion | Serum 1α,25-(OH)2D2 ([4]; during treatment): dramatic rise | Mild hypercalcemia (10.2-10.4 mg/dL), subjects affected ([4]; first year): four | Moderate hypercalcemia (10.4-10.8 mg/dL), subjects affected ([4]; over the course of the study, prescribed dosages 5.0 μg/day): two | Hypercalciuria observed occasionally, subjects affected ([4]; over the two-year study): 17 subjects | Marked hypercalcemia (>10.8 mg/dL), subjects affected ([4]; prescribed dosage 5.0 μg/day, in association with an intercurrent illness): one | Mild hypercalcemia (10.2-10.4 mg/dL), subjects affected ([4]; second year): two | Bone mineral density (BMD) in the L2-L4 vertebrae ([4]; two-year study, decreased with placebo, difference P<0.05 after 24 months): progressively increased

C=C1/C(=C\C=C2/CCC[C@]3(C)[C@@H]([C@H](C)CCCC(C)(C)O)CC[C@@H]23)C[C@@H](O)C[C@@H]1O [calcitriol, 1,25-dihydroxyvitamin D3]
Effect of treatment on PTH levels (PTH levels): over suppression of PTH levels
